Experiments:
[1] = tested for use as a possible sedative; cited from earlier work
Candida albicans = experiment: Hard surface carrier disinfection test (AOAC 991.47), colony count; type: cell-based; conditions: for Colonies Of Candida Albicans Observed: carrier 15 min in culture; for Effect on the fungus: 25% loading, summary of Examples 1-15
Protocol: The compositions are evaluated according to an approved surface carrier disinfection test (Official Methods of Analysis of the Association of Official Analytical Chemists protocol 991.47: Hard surface carrier test method). Cultures of Candida albicans are grown for 24 hours at room temperature in trypsin soy broth to a density of approximately McFarland standard #10. Sterile glass cylinders (Belco Cat. #2090-[…]) serve as carriers. The carriers are coated with the test composition or the control composition and subsequently submerged in 5 ml of the stock culture and allowed to remain there for 15 minutes. The carriers are aseptically transferred to sterile, dry Whatman #1 filter paper, and excess droplets of the inoculation medium are removed. The carriers are dried at 37° C. for 40 minutes and then aseptically transferred to 5 ml of trypsin soy broth. They are then sonicated for 10 minutes in as water bath at 25° C. Tubes containing the sonicated carriers are vortexed, and a portion of the medium is placed onto trypsin soy agar plates, and incubated overnight at 37° C. Microbial growth is assessed by counting colonies.

## CCCC1(C)COB(c2ccc(C)cc2)OC1 [I.S. 813, 2-(p-tolyl)-(5-methyl, 5-propyl)-1,3,2,-dioxiborinane]
[1]
  Toxicity: very low

## CC1CC(C)(C)OB(OB2OC(C)CC(C)(C)O2)O1 (stereo not drawn) [compound S2, 2,2′-oxybis (4,4,6-trimethyl-1,3,2-dioxaborinane)]
Candida albicans; 0.1 wt. % in mineral oil
  Colonies Of Candida Albicans Observed: 11
Candida albicans; 1.0 wt. % in mineral oil
  Colonies Of Candida Albicans Observed: 1
Candida albicans; 10 wt. % in mineral oil
  Colonies Of Candida Albicans Observed: 0
Candida albicans
  Effect on the fungus: completely destroys the fungus
Candida albicans; 25 wt. % in mineral oil
  Colonies Of Candida Albicans Observed: 0
Candida albicans; 50 wt. % in mineral oil
  Colonies Of Candida Albicans Observed: 0
Candida albicans; 75 wt. % in mineral oil
  Colonies Of Candida Albicans Observed: 0

## CC1CCOB(OCCC(C)OB2OCCC(C)O2)O1 (stereo not drawn) [compound S1, 2,2′-(1-methyltrimethylenedioxy) bis-(4-methyl-1,3,2-dioxaborinane)]
Candida albicans; 0.1 wt. % in mineral oil
  Colonies Of Candida Albicans Observed: 8
Candida albicans; 1.0 wt. % in mineral oil
  Colonies Of Candida Albicans Observed: 2
Candida albicans; 10 wt. % in mineral oil
  Colonies Of Candida Albicans Observed: 0
Candida albicans
  Effect on the fungus: completely destroys the fungus
Candida albicans; 25 wt. % in mineral oil
  Colonies Of Candida Albicans Observed: 0
Candida albicans; 50 wt. % in mineral oil
  Colonies Of Candida Albicans Observed: 0
Candida albicans; 75 wt. % in mineral oil
  Colonies Of Candida Albicans Observed: 0
